Test system: Aedes aegypti mosquitoes
Format: in vivo
Conditions: for Synergism of the insecticide by Cha Plu (SR or words): Cha Plu at 4 μg/female; for LD50: Table 1, topical 0.2 μL, mortality at 24 hr, Cha Plu 4 μg/female where combined; for Synergism of NP by Cha Plu constituent: Table 2, 2 ug/female
Source text: Aedes aegypti mosquitoes of the insecticide susceptible Orlando strain and the pyrethroid-resistant Puerto Rico strain were reared using standard protocols and provided by the United States Department of Agriculture—Center of Medical, Agricultural, and Veterinary Entomology (Gainesville, FL). Mosquitoes were aspirated from colony cages raised from pupae and anesthetized on ice. […] Ten mosquitoes were used per concentration and at least three different biological cohorts were used in the analysis. Knockdown (defined as inability to fly or maintain posture) was recorded at 1 hr or other time points post application (depending on the experiment), whereas mortality (defined as no movement—ataxia) was recorded at 24 hr. […] SAS 9.4 was used to calculate the LD50 values using a PROC PROBIT model with Abbott's correction to account for any control mortality.

Row | Structure (SMILES) | Synergism of the insecticide by Cha Plu (SR or words) | LD50 | Synergism of NP (PBO applied at 2 μg/female) | Synergism of NP by Cha Plu constituent
1 | CCOCn1c(-c2ccc(Cl)cc2)c(C#N)c(Br)c1C(F)(F)F [Chlorfenapyr] | antagonism | 9.9 ng/mg | – | –
2 | CNC(=N[N+](=O)[O-])NCc1cnc(Cl)s1 [Clothianidin, 1-(2-Chloro-1,3-thiazol-5-ylmethyl)-3-methyl-2-nitroguanidine] | strong synergist | 4.5 ng/mg | – | –
3 | N#Cc1nn(-c2c(Cl)cc(C(F)(F)F)cc2Cl)c(N)c1[S+]([O-])C(F)(F)F (stereo not drawn) [Fipronil] | 1.02 | 0.1 ng/mg | – | –
4 | CCCCOCCOCCOCc1cc2c(cc1CCC)OCO2 [PBO] | – | – | 3.8 fold | –
5 | O=c1cc(-c2ccc(O)cc2)oc2c([C@@H]3O[C@H](CO)[C@@H](O)[C@H](O)[C@H]3O)c(O)cc(O)c12 [Vitexin] | – | – | – | inactive
6 | C[C@@H]1O[C@@H](OC[C@H]2O[C@@H](Oc3c(-c4ccc(O)c(O)c4)oc4cc(O)cc(O)c4c3=O)[C@H](O)[C@@H](O)[C@@H]2O)[C@H](O)[C@H](O)[C@H]1O [rutin] | – | – | – | more than 3 fold
